The source of these data is ChEMBL document CHEMBL3638759, “Substituted 2-aza-bicyclo[2.2.1]heptane-3-carboxylic acid (cyano-methyl)-amides inhibitors of cathepsin C” (2014).

The test deals with Dipeptidyl peptidase 1 (Homo sapiens, UniProt P53634). As to the kind of experiment: Inhibition Assay: The following buffers were used: MES buffer: 25 mM MES, 50 mM NaCl, 5 mM DTT, adjusted to pH 6.0, containing 0.1% BSA; TAGZyme Buffer: 20 mM NaH2PO4, 150 mM NaCl adjusted to pH is 6.0 with HClAssay Conditions:The recombinant human DPPI was diluted in TAGZyme buffer to 1 U/ml (38.1 ug/ml, respectively), and then activated by mixing in a 1:2 ratio with a Cysteamine aqueous solution (2 mM) and incubating for 5 mM at room temperature.Five uL test compound (final concentration 0.1 nM to 100 uM) in aqua bidest (containing 4% DMSO, final DMSO concentration 1%) were mixed with 10 uL of DPPI in MES buffer (final concentration 0.0125 ng/uL) and incubated for 10 min. Then, 5 uL of substrate in MES buffer (final concentration 50 uM) were added. The microtiter plates were then incubated at room temperature for […] Then, the reaction was stopped by adding 10 uL of Gly-Phe-DMK in MES-buffer (final concentration 1 uM).
Dipeptidyl peptidase 1, sequence (P53634 25-134 limits assumed): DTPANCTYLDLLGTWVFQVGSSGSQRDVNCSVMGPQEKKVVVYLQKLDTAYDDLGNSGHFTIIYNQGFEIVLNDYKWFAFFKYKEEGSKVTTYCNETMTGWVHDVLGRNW
Dipeptidyl peptidase 1, sequence (P53634 231-394 limits assumed): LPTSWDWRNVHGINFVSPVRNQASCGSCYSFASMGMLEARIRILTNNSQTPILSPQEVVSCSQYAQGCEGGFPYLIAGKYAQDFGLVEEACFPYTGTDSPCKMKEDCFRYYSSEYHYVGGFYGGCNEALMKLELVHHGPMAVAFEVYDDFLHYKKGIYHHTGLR
Dipeptidyl peptidase 1, sequence (P53634 395-463 limits assumed): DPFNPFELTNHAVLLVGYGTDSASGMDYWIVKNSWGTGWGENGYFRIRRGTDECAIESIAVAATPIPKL

As a reminder, the Ki is a measure of affinity in units of concentration, obtained from inhibition or displacement. As for `CN1C(=O)Cc2ccc(-c3sc(CC(C#N)NC(=O)[C@H]4N[C@@H]5CC[C@H]4C5)c(F)c3Br)cc21` (stereo partly specified), the Ki is 3.6 nM.
